The nature of this data set: gradient 5% acetonitrile 3 min, to 50% in 2 min, to 85% in 15 min, held 3 min, 100 µL/min. The conditions noted are these: column: Zorbax Extend-C18 2.1 x 50 mm; eluents: water / acetonitrile, 0.1% formic acid. The gist of the method: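 The mobile phases were water and acetonitrile, each with 0.1% formic acid, pumped at 100 μL/min through a Zorbax Extend-C18 column (2.1 × 50 mm, 1.8 μm). Pure standards were injected as mixtures of ~100 molecules and detected by a quadrupole time-of-flight mass spectrometer in positive and negative ionization mode. Retention time came from computationally picked adduct peaks, each inspected by hand.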
Compound `Cc1ccc(CNC(=O)C2(C)CN(S(C)(=O)=O)CC(=O)N2CCc2ccc(Cl)cc2)cc1` (stereo not given) showed an RP-LC retention time of 961 s.

`O=S(=O)(c1cccc(C(F)(F)F)c1)N1CCC(CN2CCCCC2)CC1` showed an RP-LC retention time of 680 s. The result for `CN1C(=O)C2(CCN(C(=O)c3ccccc3Cl)C2)c2ccccc21` (stereo not given) reads 787 s; that for `COCCN1C(=O)c2ccccc2C(C(=O)Nc2ccc(OC)c(OC)c2)C12CCCC2` (stereo not given), 776 s. As to `Cc1cc(C)cc(N2C(=O)CN(CC(C)C)[C@H]3CS(=O)(=O)C[C@H]32)c1`, the RP-LC retention time is 619 s. `CC(C)NC(=O)N1CCC(c2noc(-c3ccncc3)n2)C1` (stereo not given) came in with an RP-LC retention time of 626 s. The result for `CCNS(=O)(=O)c1cc(-c2nnc(-c3ccc(OC)c(OC)c3)o2)ccc1C` reads 833 s. On to `O=S(=O)(Nc1ccc(Cn2cncn2)cc1)c1cccc(F)c1`, for which the RP-LC retention time was found to be 705 s.

The compound `COc1ccc(C(=O)N2CCc3ccc(C(=O)NCc4ccc(C)o4)cc32)cc1` registered an RP-LC retention time of 865 s. The result for `Cc1cccc(C)c1NC(=O)NCc1ccco1` reads 790 s; that for `COc1ccc(-c2noc(-c3nn(-c4ccc(F)c(F)c4)ccc3=O)n2)cc1`, 914 s; that for `Cc1ccc(-c2nc(C)cc(OCC(=O)Nc3c(C)cc(C)cc3C)n2)cc1`, 1130 s. `Cn1cc(CCN2CCC(C(=O)NC3CCCCCC3)CC2)c2cccnc21` returned an RP-LC retention time of 616 s.

As for `CC1(C(=O)NCc2ccccc2)CCCN(C(=O)Nc2ccccc2C(F)(F)F)C1` (stereo not given), the RP-LC retention time is 958 s. Compound `CCCOc1nccnc1NC1CCN(C(=O)c2ccn(CC)n2)CC1` returned an RP-LC retention time of 722 s.

In the case of `Cc1ccc2nc(C(=O)NCCN(C)C3CCCCC3)cn2c1`, the RP-LC retention time turned out to be 564 s. Next, `Cc1ccccc1S(=O)(=O)N1[C@H]2CC[C@@H]1c1cnc(-c3ccc(F)cc3)nc1C2`: 1210 s. The result for `Cc1ccccc1NC(=O)Cn1nc(N2CCCC(C)C2)c2ccccc2c1=O` (stereo not given) reads 1120 s. On to `O=C(Nc1ccccc1C(F)(F)F)NC1CCN(c2ccccc2)C1=O` (stereo not given), for which the RP-LC retention time was 841 s. Next, `CC(C)c1noc(-c2cccnc2N2CCCN(Cc3ccc(F)cc3Cl)CC2)n1`: 754 s. The result for `CC(C)c1nnc2n1CCN(C(=O)c1ccc(Cl)s1)C2` reads 661 s. Next, `Cn1c(=O)c(N2CCC(C(=O)NCc3ccco3)CC2)nc2ccccc21`: 774 s; `Cc1cccc(NC(=O)Cn2c(C)nc(C)c(C)c2=O)c1`: 658 s; `Cc1ccc(C)c(-c2csc3c(=O)n(CC(=O)OC(C)(C)C)cnc23)c1`: 1110 s. Regarding `Cc1ccc(C)c2sc(N(C)CC(=O)Nc3ccc(-n4cnnn4)cc3)nc12`, the RP-LC retention time came to 896 s. Next, `C=C[C@H]1CN2CCC1C[C@@H]2C(O)c1ccnc2ccccc12` (stereo not given in full): 576 s; `O=C(c1ccco1)N1CCCC(c2nnc(-c3cccs3)o2)C1` (stereo not given): 690 s. The result for `Cc1cnc(C(=O)N2CCC(N3C(=O)C4(CCCC4)C3c3scnc3C)CC2)cn1` (stereo not given) reads 681 s; that for `CCOc1ccccc1NC(=O)C1CCN(c2cncnc2N2CCOCC2)CC1`, 651 s; that for `COc1ccc2c(c1)C1(CCN(C(=O)c3ccc(Cl)cc3)C1)C(=O)N2C` (stereo not given), 832 s. Next, `CC1=C(c2ccccc2)S(=O)(=O)N=C1N1CCCN(C(=O)c2ccc(C#N)cc2)CC1`: 777 s; `COc1cccc(C(=O)N2CCN(S(=O)(=O)c3cc4c5c(c3)CCC(=O)N5CCC4)CC2)c1`: 770 s; `CC(=O)c1ccc(NC(=O)Cn2cnc3nc4c(cc3c2=O)CCCC4)cc1`: 671 s. Compound `O=c1n(CCc2ccccc2)nc2c(S(=O)(=O)N3CCCCCC3)cccn12` came in with an RP-LC retention time of 1000 s. The result for `COCc1nncn1C1CCN(C(=O)c2cc(F)cc(F)c2)CC1` reads 628 s; that for `COCCNC(=O)Cc1ccc(NC(=O)c2ccc(Br)o2)cc1`, 637 s. Compound `Cc1c(CCC(=O)N[C@H](CCS(C)=O)C(=O)O)c(=O)oc2cc(O)ccc12` (stereo not given in full) registered an RP-LC retention time of 575 s. Consider `CC(C)(NC(=O)c1cc(Cl)c2ccccc2c1O)C(=O)O`, for which the RP-LC retention time amounted to 1010 s. For the compound `COCCCNC(=O)c1ccc2cnn(Cc3ccc(Cl)cc3)c2c1`, the RP-LC retention time came to 812 s. Next, `Cc1ccccc1Nc1c(-c2c(F)cccc2Cl)nc2ccccn12`: 739 s; `O=c1c(NCC2CCCCC2)nc2ccncc2n1Cc1ccccc1`: 784 s; `Cc1sc2ccn(CC(C)C)c(=O)c2c1C(=O)NCCN1CCCCCC1`: 684 s. The result for `O=C(COc1ccc(Br)cc1)Nc1cncc(-c2nc3ccccc3o2)c1` reads 1040 s; that for `COCCCn1c(=O)c2ccccc2n(Cc2nc(-c3ccc4c(c3)OCO4)no2)c1=O`, 954 s; that for `Cn1c(N2CCCC(C(=O)N3CCN(Cc4ccccc4)CC3)C2)cc(=O)n(C)c1=O` (stereo not given), 597 s. Take `NC(=O)c1cc(=O)[nH]c2ccc(F)cc12`: the RP-LC retention time amounted to 558 s. The result for `COCCN1C(=O)c2ccccc2C(C(=O)NCCN2CCCCC2C)C1c1cccs1` (stereo not given) reads 634 s; that for `Cc1ccc(CNC(=O)c2ccc3c(c2)N(C)C(=O)C2CCCCN32)cc1` (stereo not given), 908 s; that for `CCc1cccc(C)c1Nc1c(-c2ccc(F)cc2)nc2ncccn12`, 886 s.

In turn, `CCCC(NC(=O)c1cc(OC)cc(OC)c1)C(=O)Nc1nc2ccccc2[nH]1` (stereo not given) yielded an RP-LC retention time of 719 s.

For the compound `COc1ccccc1-n1ccn2cc(-c3cccc(Cl)c3)nc2c1=O`, the RP-LC retention time was determined as 873 s.

Regarding `CCOc1ccc(-c2nc(C3CC(=O)N(c4ccc(OC)cc4)C3)no2)cc1OCC` (stereo not given), the RP-LC retention time was found to be 927 s. Regarding `CNC(=O)[C@@H]1CN(C(=O)c2cc(C3CC3)[nH]n2)C[C@H]1c1n[nH]c(C)n1`, the RP-LC retention time came to 577 s. Regarding `COc1ccc(CC(=O)NC(C)C(=O)Nc2nc3ccccc3[nH]2)c(Cl)c1` (stereo not given), the RP-LC retention time came to 676 s.

`CNC(=O)c1nc(C(C)(C)NC(=O)c2ccoc2)nc2c1OCO2` registered an RP-LC retention time of 624 s. In turn, `CCN(CC)c1ccc(NC(=O)C2C(=O)NC3(C)CC2c2ccccc2O3)c(C)c1` (stereo not given) displayed an RP-LC retention time of 640 s. With `CN1C(=O)C2(CCN(C(=O)c3cccc(Cl)c3)C2)c2ccccc21` (stereo not given), the RP-LC retention time came out at 811 s. In the case of `Cc1nc(-c2cccc(-c3noc(-c4cncc(Br)c4)n3)c2)cs1`, the RP-LC retention time turned out to be 1230 s.

As to `Cn1ccc2cc(S(=O)(=O)N3CCCC(C(=O)NC4CCN(Cc5ccccc5)CC4)C3)ccc21` (stereo not given), the RP-LC retention time was determined as 685 s. The result for `c1cc(CN2CCCCC2)ccc1CC1CCNCC1` reads 528 s.

As to `COc1cccc(-c2noc(Cn3cnc4c(oc5ccccc54)c3=O)n2)c1`, the RP-LC retention time was determined as 938 s. The result for `COCC(C)NC(=O)CN1c2ccc(F)cc2-c2ccccc2S1(=O)=O` (stereo not given) reads 785 s. Compound `O=C(NCc1nnc(SCc2ccccn2)o1)c1ccccc1` returned an RP-LC retention time of 586 s. In turn, `O=C(Cc1nnc(-c2ccc3ncccc3c2)o1)Nc1cc(F)cc(F)c1` gave an RP-LC retention time of 784 s. For the compound `COC(=O)c1ccc(NC(=O)Cc2csc(Nc3ccc(S(C)(=O)=O)cc3)n2)cc1`, the RP-LC retention time came out at 698 s.

`CCNC(=O)C1CCCN(c2nc3ncn(CC(=O)Nc4ccc(C(C)C)cc4)c(=O)c3s2)C1` (stereo not given) had an RP-LC retention time of 759 s.

With `Cc1cccc(N2CCN(c3ccc4nnc(CCc5nc(-c6ccccc6C)no5)n4n3)CC2)c1`, the RP-LC retention time is 1220 s. Next, `O=C(Nc1ccc(F)cc1F)N1CCCC1c1nc(-c2ccc(F)cc2F)no1` (stereo not given): 946 s; `CCC(C)(C)NS(=O)(=O)c1ccc(-c2c(C)noc2C)cc1`: 939 s; `O=C(C1CCN(c2cnc3nccnc3c2)CC1)N1CCC(Cc2ccccc2)CC1`: 889 s. Next, `CC(C)c1nn2c(S(=O)(=O)NC3CCCCC3)c(C(C)C)nc2s1`: 1110 s. The result for `CCN(CC)CCNC(=O)c1ccc(CS(=O)(=O)c2ccc(Br)cc2)o1` reads 634 s; that for `COc1ccc(OC)c(NC(=O)c2c(OC)cc(=O)n3c2CCCC3)c1`, 695 s; that for `O=c1c2cc(-c3ccc(Cl)cc3)nn2ccn1Cc1ccc(F)cc1`, 1120 s.

On to `N#Cc1cccc(C(=O)NC2CCN(c3cc(-c4ccc(Cl)cc4)[nH]n3)C2)c1` (stereo not given), for which the RP-LC retention time came to 728 s. Consider `Cc1cc(Cl)ccc1NC(=O)c1cccn1-c1cccnc1`, for which the RP-LC retention time worked out at 798 s. In turn, `O=C(NCCCN1CCCC1=O)c1ccc2ncnc(N3CCCCC3)c2c1` yielded an RP-LC retention time of 584 s. Turning to `COCCCNC(=O)N1CCN(c2nnc(C)c3c(C)n(-c4ccc(C)cc4)nc23)CC1`, the RP-LC retention time worked out at 643 s. For the compound `COc1cc(OC)cc(N2C(=O)C3N=NN(Cc4nc(-c5ccc(Cl)cc5)no4)C3C2=O)c1` (stereo not given), the RP-LC retention time turned out to be 1020 s. `Cc1ccc(N2CCN(S(=O)(=O)c3cc4c(s3)CCN(C(=O)C3CC3)C4)CC2)cc1` registered an RP-LC retention time of 1020 s.

Source of the values: the METLIN SMRT retention time set (Domingo-Almenara et al. 2019).
